We go through eleven molecules from PubChem BioAssay (NCI).

“And” between values parts separate entries of the source, which are not always exact repeats. Identical values can stand only once.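 Each compound was tested at five concentrations against cells in 96-well plates for 48 hours. GI50 = concentration required for 50% inhibition of growth. Definition used: TGI = concentration required for complete inhibition of growth.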

Among the test systems are BT-549 breast; HL-60(TB) leukemia; NCI-H226 lung; NCI-H23 lung; OVCAR-3 ovarian; SK-MEL-2 melanoma; SNB-75 CNS; SW-620 colon.
Holding throughout (assay): growth of human tumour cells (NCI), 48 h

On to `NS(=O)(=O)c1cccc(Nc2cc(-c3ccc(F)cc3)[nH]n2)c1`, for which the GI50 in the assay with BT-549 breast is over 23.9 µM; with HL-60(TB) leukemia, over 25 µM; with NCI-H226 lung, over 25 µM; with NCI-H23 lung, over 25 µM; in the assay on OVCAR-3 ovarian it was 19.5 µM; in the assay on SK-MEL-2 melanoma, 16.1 µM. Besides, the GI50 with SNB-75 CNS is over 15.5 µM; with SW-620 colon, over 23.2 µM. The TGI in the assay on BT-549 breast, in the assay with HL-60(TB) leukemia, in the assay with NCI-H226 lung, in the assay with NCI-H23 lung, in the assay on OVCAR-3 ovarian and in the assay on SK-MEL-2 melanoma was over 25 µM throughout. Besides, the TGI in the assay with SNB-75 CNS and in the assay with SW-620 colon was over 25 µM in each case.
Turning to `CN(N=O)c1ccc(/C=C/c2ccnc3ccccc23)cc1`, the TGI with BT-549 breast, in the assay on HL-60(TB) leukemia, with NCI-H226 lung, in the assay with NCI-H23 lung, in the assay with OVCAR-3 ovarian and in the assay on SK-MEL-2 melanoma was over 100 µM each time. For the same molecule, the TGI in the assay on SNB-75 CNS and in the assay on SW-620 colon was over 100 µM throughout.
As for `CC1(C)C2CC(=O)C1(C)C(OCc1ccccc1)C2Br` (stereo not drawn), the GI50 with BT-549 breast was 26.6 µM and 54.3 µM; in the assay on NCI-H226 lung, 23.2 µM and > 100 µM; in the assay on OVCAR-3 ovarian, 19.3 µM and 53.4 µM; with SK-MEL-2 melanoma, 13.1 µM and > 100 µM. Further, the TGI is 67.4 µM and > 100 µM in the assay on BT-549 breast; 50.2 µM and 62.1 µM in the assay on HL-60(TB) leukemia; 56.1 µM and > 100 µM with NCI-H226 lung; 76.3 µM and > 100 µM with NCI-H23 lung; 37.1 µM and > 100 µM with OVCAR-3 ovarian; 25.8 µM and > 100 µM in the assay with SK-MEL-2 melanoma. Moreover, the TGI in the assay on SW-620 colon is 47 µM and > 100 µM.
For the molecule `COc1ccc2c(c1O)[C@@]13CCCC=C1[C@@H](C2)N(C)CC3`, the TGI with BT-549 breast, in the assay on HL-60(TB) leukemia, in the assay with NCI-H226 lung, with NCI-H23 lung, in the assay on OVCAR-3 ovarian and with SK-MEL-2 melanoma was over 100 µM each time. The TGI in the assay on SNB-75 CNS and with SW-620 colon was over 100 µM in each case.
Regarding `COc1cc(/C=N\Nc2ccccc2)ccc1OC(=O)c1ccccc1`, the GI50 is 8.34 µM in the assay on BT-549 breast; 0.544 µM with HL-60(TB) leukemia; 10.2 µM in the assay on NCI-H226 lung; 15.8 µM in the assay on NCI-H23 lung; 4.19 µM with OVCAR-3 ovarian; 2.1 µM in the assay on SK-MEL-2 melanoma. In addition, the GI50 in the assay with SNB-75 CNS is 12.8 µM; in the assay on SW-620 colon it was 0.736 µM. Also, the TGI with BT-549 breast was 62.3 µM; with HL-60(TB) leukemia, over 72.1 µM; with NCI-H226 lung it was over 77.6 µM; with NCI-H23 lung, over 100 µM; with OVCAR-3 ovarian it was over 68.9 µM; with SK-MEL-2 melanoma, 60 µM. In addition, the values for the TGI in the assay on SNB-75 CNS and in the assay with SW-620 colon were 61.9 µM and 19.9 µM, respectively.
Consider `CCCCCn1sc(=O)n(Cc2ccc(CNC(=O)C(C)c3ccc(CC(C)C)cc3)cc2)c1=O` (stereo not drawn), for which the GI50 is 0.972 µM with BT-549 breast; 1.68 µM with HL-60(TB) leukemia; 1.3 µM in the assay with NCI-H226 lung; 1.45 µM in the assay on NCI-H23 lung; 0.488 µM in the assay on OVCAR-3 ovarian; 1.5 µM in the assay with SK-MEL-2 melanoma. Also, the GI50 in the assay with SNB-75 CNS is 0.431 µM; in the assay with SW-620 colon it was 0.37 µM. Further, the TGI with BT-549 breast was 2.23 µM; in the assay with HL-60(TB) leukemia, over 20.5 µM; in the assay with NCI-H226 lung, 2.67 µM; with NCI-H23 lung it was 2.96 µM; with OVCAR-3 ovarian it was 1.63 µM; in the assay with SK-MEL-2 melanoma it was 2.98 µM. Moreover, the TGI in the assay on SNB-75 CNS turned out to be 1.86 µM; in the assay with SW-620 colon it was 1.46 µM.
Regarding `COc1ccc(/C(=C(\c2ccccc2)[N+](=O)[O-])c2ccc(OCCN3CCCC3)cc2)cc1`, the GI50 in the assay with BT-549 breast was 4.51 µM; in the assay with HL-60(TB) leukemia it was 1.94 µM; in the assay with NCI-H226 lung, 4.37 µM; with NCI-H23 lung, 4.94 µM; with OVCAR-3 ovarian it was 3.93 µM; in the assay with SK-MEL-2 melanoma, 2.06 µM. The figures for the GI50 in the assay on SNB-75 CNS and with SW-620 colon were 2.24 µM and 1.74 µM, respectively. Besides, the TGI with BT-549 breast turned out to be 17.6 µM; with HL-60(TB) leukemia, 4.6 µM; with NCI-H226 lung, 18.2 µM; in the assay with NCI-H23 lung it was 18.6 µM; in the assay with OVCAR-3 ovarian, 16.2 µM; with SK-MEL-2 melanoma, 5.06 µM. The TGI in the assay with SNB-75 CNS came to 8.17 µM; with SW-620 colon, 4.19 µM.
For `CC[C@H](C)[C@H](NC(=O)CN(C)C)C(=O)N(C)[C@H](C[C@@H](OC(C)=O)c1nc(C(=O)NC23C4C5C2C2C3C4C52C(=O)OC)cs1)C(C)C` (stereo partly drawn), the GI50 was 0.431 µM in the assay with BT-549 breast; 0.0777 µM with HL-60(TB) leukemia; over 29 µM in the assay on NCI-H226 lung; 1.42 µM in the assay with NCI-H23 lung; 0.113 µM in the assay on OVCAR-3 ovarian; 0.838 µM in the assay on SK-MEL-2 melanoma. Moreover, the figures for the GI50 in the assay with SNB-75 CNS and in the assay on SW-620 colon were 0.119 µM and 0.226 µM, respectively. The TGI with BT-549 breast is over 20.1 µM; in the assay on HL-60(TB) leukemia it was 0.242 µM; with NCI-H226 lung it was over 33.2 µM; in the assay with NCI-H23 lung, over 33.2 µM; in the assay on OVCAR-3 ovarian it was 1.31 µM; in the assay with SK-MEL-2 melanoma, over 33.2 µM. For the same molecule, the TGI with SNB-75 CNS and in the assay on SW-620 colon was over 33.2 µM throughout.
`CO[C@H]1C[C@H](O[C@H]2CC[C@@]3(C)[C@H](CC[C@@H]4[C@@H]3CC[C@]3(C)[C@@H](C5=CC(=O)OC5)CC[C@]43O)C2)O[C@H](C)[C@H]1O`: the TGI in the assay on BT-549 breast is 0.0175 µM; with NCI-H226 lung, 0.0586 µM; with NCI-H23 lung it was 0.0178 µM; with OVCAR-3 ovarian, under 0.0194 µM; in the assay on SK-MEL-2 melanoma, 0.0478 µM; with SNB-75 CNS it was 0.17 µM. The molecule also came in with a TGI in the assay on SW-620 colon of 0.113 µM.
Take `CC(C)(c1ccc(C=O)o1)c1ccc(C(C)(C)c2ccc(C=O)o2)o1`: the TGI in the assay on HL-60(TB) leukemia, in the assay on NCI-H226 lung, with NCI-H23 lung, with SK-MEL-2 melanoma and with SW-620 colon was over 100 µM each time.
With `OC[C@H]1C[C@](O)(c2ccccc2Cl)[C@@H](c2ccccc2Cl)O1`, the GI50 in the assay on BT-549 breast is 16.9 µM; in the assay with HL-60(TB) leukemia it was 16.5 µM; in the assay with NCI-H226 lung, 26 µM; in the assay on NCI-H23 lung, 25.9 µM; in the assay with OVCAR-3 ovarian, 19.5 µM; with SNB-75 CNS, 20.9 µM. Also, the GI50 in the assay on SW-620 colon is 30.1 µM. Moreover, the TGI in the assay with BT-549 breast amounted to 37 µM; in the assay on HL-60(TB) leukemia, 38.7 µM; with NCI-H226 lung it was 76.3 µM; with NCI-H23 lung, 74.2 µM; in the assay with OVCAR-3 ovarian it was 47.5 µM; with SNB-75 CNS, 79.9 µM. This molecule also displayed a TGI in the assay on SW-620 colon of over 100 µM.
